Experimental data reported in paper PMC8835475, “Salviolone from Salvia miltiorrhiza Roots Impairs Cell Cycle Progression, Colony Formation, and Metalloproteinase-2 Activity in A375 Melanoma Cells: Involvement of P21(Cip1/Waf1) Expression and STAT3 Phosphorylation” (International Journal of Molecular Sciences, 2022).

Tests used:
pERK1/2 = experiment: Immunoblot of pERK1/2 in A375 cells; type: cell-based, human; conditions: A375, 20 µM, 72 h; declined in control
Experimental: (§1) A375 cells were seeded in 6 cm Petri dishes (190 300 cell/dish) and treated with different compounds at 10 or 20 μM. After 48- or 72-h treatment, the cells were scraped using warm 1× sample buffer (2% SDS, 10% glycerol, 50 mM Tris-HCl, 1.75% β-mercaptoethanol, and bromophenol blue) and boiled at 99 °C for 10 min. Total protein extracts were kept at −80 °C until use.
Protein extracts were analyzed with a 7.5 or 10% polyacrylamide SDS-PAGE and transferred to a polyvinylidene difluoride membrane (PVDF, Thermo Fisher Scientific, Waltham, MA, USA). The membranes were blocked at RT for 1 h with TBST buffer (10 mM Tris-HCl pH 7.5, 100 mM NaCl, 0.1% Tween20) containing 4% Milk (Formulat). Then, they were incubated on a shaker, overnight (ON) at 4 °C, with 5% BSA solution containing primary antibodies against p-Tyr705-STAT3 (#9145, 1:1000), pRb (#8516, 1:2000), pERK (#4370, 1:1000), pAkt (#4060, 1:2000), pSer15-P53 (#9286, 1:2000) (Cell Signaling Technology, Danvers, […], USA), Akt (GTX121937, 1:3000), ERK (GTX134452, 1:6000), Cyclin A2 (GTX-103042, 1:3000), p-Thr160Cdk2 (GTX-133862, 1:3000), p21 (GTX-629543, 1:3000) (Genetex, Alton Pkwj Irvine, CA, USA), p53 (Sc-263, 1:1000), STAT3 (Sc-482, 1:1000), and p-Ser727-STAT3 (Sc-136193, 1:1000) (Santa Cruz Biotechnology, Dallas, TX, USA). The membranes were washed three times with TBST buffer for 30 min and then incubated for 1 h with a horseradish-peroxidase-conjugated secondary antibody (anti-rabbit 1:6000, Genetex), (anti-mouse, 1:4000, Cell Signaling Technology, Danvers, […], USA). They were washed another three times for 30 min with TBST buffer. All protein extracts were normalized with a β-actin protein antibody (GTX-124214, 1:10,000; Genetex, Alton Pkwj Irvine, CA, USA). Immuno-detection was carried out with an ECL kit (GE-Healthcare, Little Chalfont, UK), and the chemiluminescence signals were detected with ChemiDoc (Bio-Rad, Hercules, CA, USA).

ERK1/2 = experiment: Immunoblot of total ERK1/2 in A375 cells; type: cell-based, human; conditions: A375, 20 µM, 72 h
Experimental: as §1
Protein extracts were analyzed with a 7.5 or 10% polyacrylamide SDS-PAGE and transferred to a polyvinylidene difluoride membrane (PVDF, Thermo Fisher Scientific, Waltham, MA, USA). The membranes were blocked at RT for 1 h with TBST buffer (10 mM Tris-HCl pH 7.5, 100 mM NaCl, 0.1% Tween20) containing 4% Milk (Formulat). […] Immuno-detection was carried out with an ECL kit (GE-Healthcare, Little Chalfont, UK), and the chemiluminescence signals were detected with ChemiDoc (Bio-Rad, Hercules, CA, USA).

Row | SMILES | pERK1/2 expression level (pERK1/2) | total protein amount of ERK1/2 (ERK1/2)
1 | C[C@H]1COC2=C1C(=O)C(=O)c1c2ccc2c1CCCC2(C)C [Compound 4, cryptotanshinone] | remained high | –
2 | Cc1cc2ccc3c(c2cc(O)c1=O)CCCC3(C)C [Compound 7, salviolone] | remained high | increased
